These results are taken from ChEMBL document CHEMBL1124001, “Synthesis and antileukemic activity of bis[[(carbamoyl)oxy]methyl]- substituted pyrrolo[2,1-a]isoquinolines, pyrrolo[1,2-a]quinolines, pyrrolo[2,1-a]isobenzazepines, and pyrrolo[1,2-a]benzazepines” (J Med Chem, 1988).

By T/C is commonly meant the ratio of treated to control.

For data set [1], the system named is Mus musculus. The data set is described as follows: Ratio of treated to that of untreated tumor-bearing control animals at 480 mg/kg intraperitoneally in CD2F1 mice was determined. The format is functional. To be noted: route intraperitoneal.
Data set [2] relates to Mus musculus. Nature of the data set: Ratio of treated to that of untreated tumor-bearing control animals at 60 mg/kg intraperitoneally in CD2F1 mice was determined. The format is functional. As to conditions: route intraperitoneal.
Data set [3] relates to Mus musculus. The data set is described as follows: Net log cell kill was determined after injecting 240 mg/kg intraperitoneally in CD2F1 mice. The class given is functional. As to conditions: route intraperitoneal.
For data set [4], the system named is Mus musculus. The data set is described as follows: Ratio of treated to that of untreated tumor-bearing control animals at 240 mg/kg intraperitoneally in CD2F1 mice was determined. To be noted: route intraperitoneal. The class given is functional.
For data set [5], the system named is Mus musculus. The data set is described as follows: Body weight change of test animals to that of control was determined after injection at 480 mg/kg intraperitoneally in CD2F1 mice. The format is functional. To be noted: route intraperitoneal.
In data set [6] the test system is Mus musculus. The data set is described as follows: Body weight change of test animals to that of control was determined after injection at 240 mg/kg intraperitoneally in CD2F1 mice. To be noted: route intraperitoneal. The format is functional.
The test system of data set [7] is Mus musculus. The data set is described as follows: Net log cell kill was determined after injecting 60 mg/kg intraperitoneally in CD2F1 mice. The class given is functional. To be noted: route intraperitoneal.
Data set [8] relates to Mus musculus. The data set is described as follows: Toxicity day survivors was determined by the ratio of animals survived to that of test animals at 240 mg/kg intraperitoneally in CD2F1 mice; 6/6. The class given is organism-based. Further details: dose 240 mg/kg, route intraperitoneal. As to conditions: in vivo, ip.
For data set [9], the system named is Mus musculus. The data set is described as follows: Toxicity day survivors was determined by the ratio of animals survived to that of test animals at 480 mg/kg intraperitoneally in CD2F1 mice; 6/6. The class given is organism-based. Further details: dose 480 mg/kg, route intraperitoneal. To be noted: in vivo, ip.
Data set [10] has as its system Mus musculus. The data set is described as follows: Ratio of treated to that of untreated tumor-bearing control animals at 120 mg/kg intraperitoneally in CD2F1 mice was determined. The class given is functional. As to conditions: route intraperitoneal.
The test system of data set [11] is Mus musculus. Nature of the data set: Toxicity day survivors was determined by the ratio of animals survived to that of test animals at 60 mg/kg intraperitoneally in CD2F1 mice; 6/6. The format is organism-based. Also on record: dose 60 mg/kg, route intraperitoneal. As to conditions: in vivo, ip.
For data set [12], the system named is Mus musculus. Nature of the data set: Net log cell kill was determined after injecting 120 mg/kg intraperitoneally in CD2F1 mice. The format is functional. As to conditions: route intraperitoneal.
In data set [13] the test system is Mus musculus. The data set is described as follows: Toxicity day survivors was determined by the ratio of animals survived to that of test animals at 120 mg/kg intraperitoneally in CD2F1 mice; 6/6. The format is organism-based. Further details: dose 120 mg/kg, route intraperitoneal. As to conditions: in vivo, ip.
The subject of data set [14] is Mus musculus. Nature of the data set: Body weight change of test animals to that of control was determined after injection at 60 mg/kg intraperitoneally in CD2F1 mice. The format is functional. As to conditions: route intraperitoneal.
Data set [15] deals with Mus musculus. The data set is described as follows: Body weight change of test animals to that of control was determined after injection at 120 mg/kg intraperitoneally in CD2F1 mice. The format is functional. To be noted: route intraperitoneal.
Data set [16] deals with Mus musculus. The data set is described as follows: Net log cell kill was determined after injecting 480 mg/kg intraperitoneally in CD2F1 mice. The class given is functional. To be noted: route intraperitoneal.
Data set [17] relates to Mus musculus. Nature of the data set: Toxicity day survivors was determined by the ratio of animals survived to that of test animals at 25 mg/kg intraperitoneally in CD2F1 mice; 4/6. As to conditions: in vivo, ip. Also on record: dose 25 mg/kg, route intraperitoneal. The class given is organism-based.
Data set [18] deals with Mus musculus. Nature of the data set: Toxicity day survivors was determined by the ratio of animals survived to that of test animals at 3.12 mg/kg intraperitoneally in CD2F1 mice; 6/6. The class given is organism-based. Also on record: dose 3.12 mg/kg, route intraperitoneal. As to conditions: in vivo, ip.
Data set [19] relates to Mus musculus. The data set is described as follows: Ratio of treated to that of untreated tumor-bearing control animals at 6.25 mg/kg intraperitoneally in CD2F1 mice was determined. The class given is functional. To be noted: route intraperitoneal.
Data set [20] concerns Mus musculus. The data set is described as follows: Body weight change of test animals to that of control was determined after injection at 25 mg/kg intraperitoneally in CD2F1 mice. The format is functional. As to conditions: route intraperitoneal.
The test system of data set [21] is Mus musculus. Nature of the data set: Toxicity day survivors was determined by the ratio of animals survived to that of test animals at 1.56 mg/kg intraperitoneally in CD2F1 mice; 6/6. The format is organism-based. Also on record: dose 1.56 mg/kg, route intraperitoneal. To be noted: in vivo, ip.
For data set [22], the system named is Mus musculus. Nature of the data set: Body weight change of test animals to that of control was determined after injection at 1.56 mg/kg intraperitoneally in CD2F1 mice. The class given is functional. As to conditions: route intraperitoneal.
Data set [23] has as its system Mus musculus. Nature of the data set: Toxicity day survivors was determined by the ratio of animals survived to that of test animals at 50 mg/kg intraperitoneally in CD2F1 mice; 3/6. The format is organism-based. Further details: dose 50 mg/kg, route intraperitoneal. As to conditions: in vivo, ip.
Data set [24] deals with Mus musculus. The data set is described as follows: Ratio of treated to that of untreated tumor-bearing control animals at 1.56 mg/kg intraperitoneally in CD2F1 mice was determined. The format is functional. As to conditions: route intraperitoneal.
The subject of data set [25] is Mus musculus. Nature of the data set: Body weight change of test animals to that of control was determined after injection at 3.12 mg/kg intraperitoneally in CD2F1 mice. The format is functional. To be noted: route intraperitoneal.
For data set [26], the system named is Mus musculus. Nature of the data set: Body weight change of test animals to that of control was determined after injection at 6.25 mg/kg intraperitoneally in CD2F1 mice. The format is functional. As to conditions: route intraperitoneal.
Data set [27] relates to Mus musculus. Nature of the data set: Toxicity day survivors was determined by the ratio of animals survived to that of test animals at 100 mg/kg intraperitoneally in CD2F1 mice; 0/6. The class given is organism-based. Further details: dose 100 mg/kg, route intraperitoneal. To be noted: in vivo, ip.
The test system of data set [28] is Mus musculus. Nature of the data set: Ratio of treated to that of untreated tumor-bearing control animals at 3.12 mg/kg intraperitoneally in CD2F1 mice was determined. To be noted: route intraperitoneal. The format is functional.
Data set [29] has as its system Mus musculus. The data set is described as follows: Net log cell kill was determined after injecting 1.56 mg/kg intraperitoneally in CD2F1 mice. The class given is functional. To be noted: route intraperitoneal.
Data set [30] relates to Mus musculus. Nature of the data set: Body weight change of test animals to that of control was determined after injection at 12.5 mg/kg intraperitoneally in CD2F1 mice. The class given is functional. As to conditions: route intraperitoneal.
In data set [31] the test system is Mus musculus. Nature of the data set: Net log cell kill was determined after injecting 6.25 mg/kg intraperitoneally in CD2F1 mice. The class given is functional. As to conditions: route intraperitoneal.
Data set [32] concerns Mus musculus. Nature of the data set: Toxicity day survivors was determined by the ratio of animals survived to that of test animals at 6.25 mg/kg intraperitoneally in CD2F1 mice; 6/6. The format is organism-based. Further details: dose 6.25 mg/kg, route intraperitoneal. To be noted: in vivo, ip.
The subject of data set [33] is Mus musculus. Nature of the data set: Toxicity day survivors was determined by the ratio of animals survived to that of test animals at 12.5 mg/kg intraperitoneally in CD2F1 mice; 6/6. The format is organism-based. Also on record: dose 12.5 mg/kg, route intraperitoneal. As to conditions: in vivo, ip.
For data set [34], the system named is Mus musculus. The data set is described as follows: Net log cell kill was determined after injecting 12.5 mg/kg intraperitoneally in CD2F1 mice. The format is functional. To be noted: route intraperitoneal.
Data set [35] has as its system Mus musculus. Nature of the data set: Body weight change of test animals to that of control was determined after injection at 50 mg/kg intraperitoneally in CD2F1 mice. The class given is functional. As to conditions: route intraperitoneal.
Data set [36] has as its system Mus musculus. The data set is described as follows: Ratio of treated to that of untreated tumor-bearing control animals at 12.5 mg/kg intraperitoneally in CD2F1 mice was determined. The class given is functional. As to conditions: route intraperitoneal.
In data set [37] the test system is Mus musculus. Nature of the data set: Net log cell kill was determined after injecting 3.12 mg/kg intraperitoneally in CD2F1 mice. As to conditions: route intraperitoneal. The format is functional.

For `CC(C)NC(=O)OCc1cn2c(c1COC(=O)NC(C)C)-c1cc(Cl)c(Cl)cc1CC2`, the T/C turned out to be 185% in the data set with Mus musculus [1], 86% with Mus musculus [2], 137% with Mus musculus [4] and 130% in the data set on Mus musculus [10]. Moreover, the KE in the data set with Mus musculus [3] was 0.1; with Mus musculus [7], -1.54; in the data set with Mus musculus [12], -0.68; in the data set with Mus musculus [16], 5.05. For the same compound, the T-C with Mus musculus [5] is -3.6 g; in the data set with Mus musculus [6], -2.3 g; with Mus musculus [14], -0.4 g; in the data set with Mus musculus [15], -2.2 g. Further, the TDS with Mus musculus [8], in the data set with Mus musculus [9], in the data set on Mus musculus [11] and in the data set on Mus musculus [13] was 6 each time.

As for `CC(C)NC(=O)OCc1cn2c(c1COC(=O)NC(C)C)-c1ccccc1CC2`, the TDS with Mus musculus [17] is on record as 4; in the data set with Mus musculus [18], 6; in the data set with Mus musculus [21], 6; in the data set on Mus musculus [23], 3; in the data set on Mus musculus [27], 0; in the data set with Mus musculus [32], 6. Further, the TDS in the data set on Mus musculus [33] came out at 6. Besides, the T/C with Mus musculus [19] was found to be 157%; in the data set with Mus musculus [24] it was 130%; in the data set on Mus musculus [28] it was 136%; with Mus musculus [36], 188%. Moreover, the T-C in the data set with Mus musculus [20] is -4.2 g; in the data set with Mus musculus [22], -0.3 g; with Mus musculus [25] it was -0.5 g; in the data set on Mus musculus [26] it was -0.8 g; with Mus musculus [30] it was -3.1 g; in the data set on Mus musculus [35], -3.5 g. Further, the KE in the data set on Mus musculus [29] is -0.38; in the data set with Mus musculus [31] it was 1.6; in the data set on Mus musculus [34] it was 3.84; with Mus musculus [37], 0.
